The text below walks through data of article PMC10194981, “Chemosensory protein regulates the behavioural response of Frankliniella intonsa and Frankliniella occidentalis to tomato zonate spot virus–Infected pepper (Capsicum annuum)” (PLOS Pathogens, 2023).

In one assay the test system is F. intonsa antennae. The assay can be described thus: Electroantennogram (EAG) assay. The note with it: excised F. intonsa antennae. The arrangement: species or system Frankliniella intonsa. The method, then: The FintCSP1, FintCSP2, FintOBP, FintOR, FoccCSP, and enhanced green fluorescent protein (EGFP) coding sequences were obtained from GenBank under accession numbers MT199111, MT211602, OK067245, MT211603, AEP27186.1, and U55761.1, respectively. Primers were designed using Primer Premier 5.0, and the T7 promoter sequence (5′-[…]-3′) was added to the 5′ end of each primer (S1 Table). DNA fragments containing T7 promoter sequences were amplified by PCR using pEASY-T1/target gene or pUC-EGFP (preserved in the laboratory) plasmid DNA as template. Then, a double-stranded RNA (dsRNA) was produced from each target gene using the HiScribe T7 Quick High Yield RNA Synthesis Kit (New England Biolabs) according to the manufacturer’s instructions. Six hundred 2-day-old female F. intonsa or two hundred 2-day-old female F. occidentalis adults were anesthetized using CO2 and microinjected with 40 nL (3 μg/μL) dsRNA (dsFintCSP1 dsFintCSP2, dsFintOBP, dsFintOR or dsFoccCSP or dsEGFP) using a CellTram Oil microinjector (Eppendorf, Hamburg, Germany). The injected thrips were kept on broad beans in an artificial climate incubator as described above and used in subsequent RNAi experiments. Three biological replicates were conducted for each treatment with each dsRNA.
At 24 h after dsRNA injection, the electrophysiological responses of F. intonsa antennae to six volatile components (i.e., m-cymene, cis-3-hexenal, (+)-2-carene, trans-2-hexenal, α-phellandrene, and α-humulene) or F. occidentalis antennae to cis-3-hexenal were recorded using EAG. Antennae of female adult thrips were cut off at the base, and the distal terminus was carefully removed. The tested compounds were dissolved in liquid paraffin, with pure liquid paraffin used as a negative control. An Ag-AgCl2 glass electrode and Kaissling electrode solution were used in the experiment according to Tian et al.. The base of the antenna was inserted into the glass capillary filled with electrode solution at the end of the reference electrode; the top of the antenna was connected to the glass capillary at the end of the recording electrode to ensure no bubbles in the glass capillary. After successful connection, the antennae were stimulated with each chemical in the following order: liquid paraffin, volatile compounds, and liquid paraffin. Stimulus time was 0.2 s with each stimulus at 40 s intervals. At least 10 antennae were tested for each volatile compound. The EAG values to volatile compounds were calculated using the following equation: absolute value of EAG reaction = reaction value of the tested sample—average value of two control measurements.

Assay [1] concerns the target recombinant wild-type FintCSP1 (Frankliniella intonsa, UniProt A0A891LVF4). In words: Fluorescence (1-NPN) binding and competitive binding assay, wild-type FintCSP1. The method, then: FintCSP1 and FoccCSP DNA were released from pEASY-T1/FintCSP1 and pEASY-T1/FoccCSP, respectively, by restriction digestion with BamHI and XhoI and cloned into the pET-30a vector (Invitrogen). The resulting construct was transformed into Transetta (DE3) Escherichia coli competent cells (Transgen). The production of recombinant FintCSP1 and FoccCSP was induced by addition of isopropyl-β-D-1-thiogalactopyranoside (IPTG, 0.2 mM) at 15°C and purified by Ni ion affinity chromatography (Sangon Biotech, Shanghai, China). The target protein was verified by 15% SDS-PAGE, and its concentration was determined with a BCA protein assay kit (Thermo Scientific, Rockford, IL, USA). The recombinant purified protein was stored at −20°C until use.
The binding affinity of FintCSP1 and FoccCSP to the fluorescent probe N-phenyl-1-naphthylamine (1-NPN) was tested using a Spectramax M2 fluorescence spectrometer (Molecular Devices, USA) as reported previously. […] The 1-NPN/FintCSP1 or 1-NPN/FoccCSP mixture was excited at 280 nm, and the emission spectra were recorded at 415 nm. The binding constants (Kd) of FintCSP1 or FoccCSP to 1-NPN were calculated by Scatchard analysis using Prism 5 software (GraphPad, La Jolla, CA, USA). Assuming a protein activity of 100% and that the volatile compound binds to the protein in a 1:1 ratio at saturation, the dissociation constants (Ki) of FintCSP1 or FoccCSP for each ligand were calculated according to the IC50 (the concentration when the ligand replaces 50% of the probe) value of the volatile compounds. The Ki values were calculated according to the following equation: Ki = [IC50]/(1 + [1-NPN]/K1-NPN), where [1-NPN] is the free concentration of 1-NPN, and K1-NPN is the Kd of the 1-NPN/FintCSP1 or 1-NPN/FoccCSP.

A further assay concerns F. intonsa. In words: Y-tube olfactometer preference test. In kind it is in vivo, Frankliniella intonsa. The note with it: volatile compound vs liquid paraffin control; n = 60. The method, then:
F. intonsa and F. occidentalis preference tests of plant volatile cues were performed using a glass Y-tube olfactometer according to the method described by Wang et al. (2014) with minor modifications. A Y-shaped tube (1-cm inner diameter) consisted of a central tube (10 cm in length) and two arms (10 cm in length, offset by 60°) connected to two different glass odor bottles. One glass odor bottle was 50 cm in height, with a 10-cm inner diameter that contained pepper plants (14-day post-viral infection); the other glass odor bottle was 5 cm in height, with a 3-cm inner diameter for plant VOCs. The airflow in the olfactometer (200 mL/min) was filtered through activated carbon and calibrated using a flow meter at the end of each arm. To remove all visual cues, the Y-tube was positioned horizontally in a black airtight cubic box (90 cm × 60 cm × 40 cm). The tested odor sources (pepper plant VOCs) were enclosed in the odor bottles 5 min prior to each test to allow the odors to fill the arms. Thrips (2-day-old, starved for 1 h) were individually placed in the central tube and allowed to choose between the two arms. When the thrips had climbed over 2/3 of the side arm and stayed there for more than 30 s, it was considered to have made a selection. If the thrips had not made a choice after being placed in the straight arm for 5 min, the insect behaviour was scored as “no selection,” and it was not counted in the total data. The direction of the Y-tube arms and the silicone tubes were adjusted after five tested thrips to eliminate the influence of position. The Y-tube was replaced after 10 tested thrips to eliminate the possible influence of existing odors on thrips behaviour. Each treatment consisted of 20 thrips, with three replicates per treatment.
The FintCSP1, FintCSP2, FintOBP, FintOR, FoccCSP, and enhanced green fluorescent protein (EGFP) coding sequences were obtained from GenBank under accession numbers MT199111, MT211602, OK067245, MT211603, AEP27186.1, and U55761.1, respectively. Primers were designed using Primer Premier 5.0, and the T7 promoter sequence (5′-[…]-3′) was added to the 5′ end of each primer (S1 Table). DNA fragments containing T7 promoter sequences were amplified by PCR using pEASY-T1/target gene or pUC-EGFP (preserved in the laboratory) plasmid DNA as template. Then, a double-stranded RNA (dsRNA) was produced from each target gene using the HiScribe T7 Quick High Yield RNA Synthesis Kit (New England Biolabs) according to the manufacturer’s instructions. […]

Structures are written as SMILES. Entries after “also recorded” stand apart in the source; their conditions may differ. A value given as a limit tells only on which side of the number the result lay.

Sequence of recombinant wild-type FintCSP1 (A0A891LVF4 entry or part of it): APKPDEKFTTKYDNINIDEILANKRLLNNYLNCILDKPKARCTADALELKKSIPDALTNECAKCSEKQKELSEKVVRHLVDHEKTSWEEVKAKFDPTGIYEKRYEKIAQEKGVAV

In the case of `CCC/C=C/C=O` [trans-2-hexenal], the EAG peak amplitude result in the assay on F. intonsa antennae (1 mg/L in liquid paraffin) is reported as “–0.024 mV”. In addition, in assay [1], the IC50 (commonly the midpoint of a concentration-inhibition curve) is above 100 µM and the Ki (in general, a measure of affinity in units of concentration, obtained from inhibition or displacement) was above 100 µM. The “binding affinity to FintCSP1 (in words)” value in assay [1] (wild-type FintCSP1, competitive fluorescence binding assay, classes of Ki) is “no FintCSP1 binding; also recorded: could not bind”.
As to `C/C1=C\CC/C(C)=C/CC(C)(C)/C=C/C1` [α-humulene], in the assay on F. intonsa antennae (1 mg/L in liquid paraffin), the EAG peak amplitude entry is “–0.024 mV”.
With `Cc1cccc(C(C)C)c1` [m-cymene], the EAG peak amplitude result in the assay with F. intonsa antennae (10 mg/L in liquid paraffin) is listed as “approximately –0.034 mV”. Besides, in the assay on F. intonsa, the “preference of F. intonsa in Y-tube olfactometer (in words)” value is “appeared to repel F. intonsa, but this result was not statistically significant”.
